One data set concerns ZIKV (SV0127/14). The experiment in a line: Antiviral efficacy (EC50), plaque titration. It counts as cell-based. The text has this: (§1) LLC/MK2 (ATCC® CCL-7), HEK-293 (ATCC® CRL-1573), HepG2 (ATCC® HB-8065), THP-1 (ATCC® TIB-202), Huh-7, RD (ATCC® CCL-136™), and C6/36 (ATCC® CRL-1660) cell lines were propagated and maintained as previously described[16],[21],[40],[53]. Reference DENV1 (16007), DENV2 (NGC, 16681), DENV3 (16562), DENV4 (1036), ZIKV (SV0127/14), and EV-A71 (BRCR) were propagated in Vero, C6/36, and R.D. cells as described[16],[21] Phumee et al.[53]. Cytotoxic concentration (CC50) of LLC/MK2, THP-1, HEK-293, HepG2, Huh-7, and R.D. cells were analyzed as previously described. […] Briefly, cells were seeded overnight and infected with each virus at the multiplicity of infection (M.O.I.) of 0.1 for 1 h. The compound was added during and after infection, and cells were incubated for 72 h. Supernatants were collected for 96-well[55] or a traditional 24-well plaque titration.

The test system of a further data set is DENV2 (NGC). The experiment in a line: Antiviral efficacy (EC50), plaque titration. It counts as cell-based.
Description: as §1

A further data set has as its system DENV1 (16008). The experiment in a line: Antiviral efficacy (EC50), plaque titration. It counts as cell-based.
Description: as §1

Another data set concerns DENV4 (1036). The data set can be described thus: Antiviral efficacy (EC50), plaque titration. It counts as cell-based.
Description: as §1

In the next data set the test system is EV-A71 (BRCR). The experiment in a line: Antiviral efficacy (EC50), plaque titration. It counts as cell-based.
Description: as §1

Another data set deals with DENV3 (16562). The data set can be described thus: Antiviral efficacy (EC50), plaque titration. It counts as cell-based.
Description: as §1

The test system of another data set is C57BL/6 mice. The data set can be described thus: Animal toxicity, 7 days intraperitoneal. As to the method:
(A) ALT and (B) Cr levels in infant mice and (C) ALT and (D) Cr levels in adult mice taken at the 8th day after seven consecutive days of 10 mg/kg 8-bromobaicalein, once daily, intraperitoneal administration. Plasma samples were collected for analysis of hepatorenal functions. Each data point represented the ALT or Cr levels of each individual. Error bars indicated the standard deviation of the means.
All methods were carried out in accordance with relevant guidelines and regulations. All experimental protocols were approved by the Institutional Animal Care and Use Committee of the Faculty of Medicine, Chulalongkorn University, Bangkok, Thailand (certificate number: 027/2562), based on the National Institutes of Health, U.S.A.'s criteria for the use and treatment of laboratory animals and by the National University of Singapore (protocol number: R20-0073). All methods are reported in accordance with ARRIVE guidelines (https://arriveguidelines.org) for the reporting of animal experiments. The 8-bromobaicalein was daily administered at 10 mg/kg via intraperitoneal injection for 7 days (n = 6) to determine the drug safety. The control group (n = 6) was injected with the vehicle (5% DMSO, 33.25% polyethylene glycol (PEG.)-400, 1.90% ethanol, and 59.85% distilled water). All mice were weighed daily and monitored for clinical signs using a clinical scoring system. Blood samples were collected via submandibular and cardiac puncture at the 8th day after the first compound administration for alanine transaminase (EnzyChrom, EALT-100, BioAssay, Hayward, CA, USA), and serum creatinine (QuantiChromTM, DICT-500, BioAssay, Hayward, CA, USA) as markers of hepatotoxicity and nephrotoxicity, respectively.

The nature of data set [1]: Cytotoxicity (CC50), MTS assay. The note with it: human.
Description: as §1
(§2) Supplementary Fig. S2. […] Briefly, cells were seeded overnight before the compound addition.
A general note: Tetrazolium dyes change colour on reduction, which living cells bring about.

The subject of data set [2] is chikungunya virus (CHIKV). The data set can be described thus: Antiviral efficacy (EC50) against chikungunya virus. It counts as cell-based. The note with it: LLC-MK2.
The nature of data set [3]: Cytotoxicity (CC50), MTS assay. Particulars: human.
Description: as §1, §2
This is another data set of the same source.

A further data set relates to DENV2 NGC. The data set can be described thus: Cell-based time-of-addition study, plaque assay. Particulars: 2, 5 or 10 µM, added within 12 h after infection, LLC/MK2, harvested 72 h. On the procedure: Figure 5 A scheme and DENV2 titers (pfu/ml) in LLC/MK2 cells of time-of-drug addition study. Briefly, the 2, 5, and 10 µM 8-bromobaicalein was added into DENV2-infected cells (M.O.I. of 0.1) at various time points. All supermatants were harvested at 72 h and quantified by plaque assay. Errors indicated the standard deviation of three biological replicates.
The protocol was adapted from a previous description. Briefly, LLC/MK2 cells (5 × 10^4) were seeded in a 24-well plate and incubated as described. Cells were infected with DENV2 NGC, unless otherwise indicated, at the M.O.I. of 0.1 before adding the compound at designated concentrations. DMSO at 1% was used as no inhibition control. Supernatants were collected to determined viral titers by plaque titration assay or RT-qPCR.

A further data set relates to DENV1-4, and ZIKV. The data set can be described thus: Antiviral efficacy, summary over dengue serotypes and Zika. It counts as cell-based.
Where [4] appears, read: 8th day after first injection, 10 mg/kg i.p., infant and adult.

Turning to `O=c1cc(-c2ccccc2)oc2c(Br)c(O)c(O)c(O)c12` [8-bromobaicalein], the “Selectivity index (SI)” value in the data set with ZIKV (SV0127/14) (ZIKV, CC50/EC50 in LLC/MK2) was above 347.2222; with DENV2 (NGC) (DENV2, CC50/EC50 in LLC/MK2), above 284.0909; in the data set on DENV1 (16008) (DENV1, CC50/EC50 in LLC/MK2), above 378.7879; in the data set on DENV4 (1036) (DENV4, CC50/EC50 in LLC/MK2), above 312.5; in the data set with DENV3 (16562) (DENV3, CC50/EC50 in LLC/MK2), above 312.5. Moreover, the EC50 in the data set with ZIKV (SV0127/14) (Zika virus, ZIKV (SV0127/14), LLC/MK2 cells, M.O.I. 0.1, 72 h) is 720 ± 200 nM; in the data set on DENV2 (NGC) (Dengue virus, DENV2, LLC-MK2, 72 h), 880 ± 140 nM; in the data set on DENV1 (16008) (LLC-MK2, 72 h) it was 660 ± 50 nM; in the data set on DENV4 (1036) (LLC-MK2, 72 h), 800 ± 150 nM; with EV-A71 (BRCR) (Enterovirus A, EVA71, EV-A71 (BRCR), table title LLC/MK2 cells, methods R.D. cells), above 25000 nM; in the data set with DENV3 (16562) (LLC-MK2, 72 h), 800 ± 80 nM. Also, the EC50 in [2] is 490 ± 110 nM; with DENV1-4, and ZIKV (Zika virus, DENV1, read-out: EC50s against DENV1-4 and ZIKV), 660 to 880 nM. Besides, the “Inhibition of enterovirus-A71” value in the data set on EV-A71 (BRCR) (nonenveloped enterovirus-A71) was “did not inhibit”. Also, the Clinical scorings entry with C57BL/6 mice (10 mg/kg i.p. once daily, 7 days) is listed as “within normal range”. Also, the “General health of mice” value in the data set with C57BL/6 mice (10 mg/kg i.p. once daily, 7 days, infant and adult mice) is on record as “healthy throughout the experiments”. Besides, in the data set with C57BL/6 mice (setting [4]), the “Alanine transaminase (ALT) level, treated vs control” value is “insignificantly different”. For the same molecule, the “Plasma creatinine (Cr) level, treated vs control” value in the data set on C57BL/6 mice (setting [4]) was “insignificantly different”. For the same molecule, the “ALT in adult cohort” value with C57BL/6 mice (adult mice, 10 mg/kg i.p., 7 days) is “slight ALT increase”. For the same molecule, the results for the CC50 at 48 h in [1] and in data set [3] were above 100000 nM and 97900 ± 7060 nM, respectively. The “Inhibition of virion progeny” value in the data set with DENV2 NGC is on record as 1–2.5 log concentrations (pfu/mL). Also, the “Selectivity index (SI) in dengue and Zika viruses” value in the data set with DENV1-4, and ZIKV (LLC/MK2) was “about 300”.
